Data from patent publication US20250353891A1 (MEDIMMUNE LIMITED, priority 2022, published 2025).
pEC50: −log10 of the molar value. Starred links: 1 amine or outer side, 2 acyl side, 3 side chain; linkers in the order of their positions; H or OH if unused. Non-standard residues stand in square brackets, D forms with d. Residues, ends and D or L forms follow the SMILES beside them. Groups on a side chain read outwards from the residue. *: point of attachment. C20 diacid = O=C(O)CCCCCCCCCCCCCCCCCCC(=O)*; C18 diacid = O=C(O)CCCCCCCCCCCCCCCCC(=O)*; γGlu = O=C(O)[C@H](CCC(=O)[*:2])N[*:1]; αMeF = C[C@](N)(Cc1ccccc1)C(=O)O; AEEA = NCCOCCOCC(=O)O; Aib = CC(C)(N)C(=O)O

Key:
[1] = biological target: human GLP-1 receptor (hGLP-1R) (Homo sapiens, UniProt P43220); experiment: cAMP production (HTRF) in CHO cells expressing hGLP-1R; assay type: cell-based; set-up: expressed in transfected cells; conditions: for pEC50: Table 6, peptides modified at position 17, cAMP in CHO hGLP-1R cells, geometric mean, read-out: hGLP-1R EC50; for % Relative Potency Ratio: Table 6, % GLP-1R activity relative to GLP-1 / % GlucR activity relative to glucagon
How it was run: (§1)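 Read-out: HTRF cAMP (anti-cAMP cryptate donor, cAMP-d2 acceptor in conjugate/lysis buffer), converted to % Delta F and fitted by 4-parameter logistic for EC50. Cell densities were 1×10^5 cells/mL (hGLP-1R) or 2×10^5 cells/mL (hGCGR). Stimulation lasted 30 min at room temperature.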

[2] = biological target: human glucagon receptor (hGCGR) (Homo sapiens, UniProt P47871); experiment: cAMP production (HTRF) in CHO cells expressing hGCGR; assay type: cell-based; set-up: expressed in transfected cells; conditions: Table 6, peptides modified at position 17; cAMP in CHO hGCGR cells; geometric mean; read-out: hGluc-R EC50
How it was run: as §1

Chain of human GLP-1 receptor (hGLP-1R) (P43220 24-463): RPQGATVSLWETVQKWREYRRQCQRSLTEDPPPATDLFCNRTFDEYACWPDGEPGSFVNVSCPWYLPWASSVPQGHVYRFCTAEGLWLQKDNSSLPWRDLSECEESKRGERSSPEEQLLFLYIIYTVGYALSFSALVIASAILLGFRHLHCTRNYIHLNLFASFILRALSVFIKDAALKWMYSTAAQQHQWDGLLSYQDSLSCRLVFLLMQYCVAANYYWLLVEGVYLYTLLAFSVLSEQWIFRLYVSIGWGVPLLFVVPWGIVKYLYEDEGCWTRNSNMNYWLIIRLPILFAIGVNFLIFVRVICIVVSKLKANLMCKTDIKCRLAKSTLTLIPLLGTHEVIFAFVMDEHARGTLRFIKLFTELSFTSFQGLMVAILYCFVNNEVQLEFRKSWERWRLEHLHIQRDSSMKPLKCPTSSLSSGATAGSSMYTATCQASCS
Chain of human glucagon receptor (hGCGR) (P47871 26-477): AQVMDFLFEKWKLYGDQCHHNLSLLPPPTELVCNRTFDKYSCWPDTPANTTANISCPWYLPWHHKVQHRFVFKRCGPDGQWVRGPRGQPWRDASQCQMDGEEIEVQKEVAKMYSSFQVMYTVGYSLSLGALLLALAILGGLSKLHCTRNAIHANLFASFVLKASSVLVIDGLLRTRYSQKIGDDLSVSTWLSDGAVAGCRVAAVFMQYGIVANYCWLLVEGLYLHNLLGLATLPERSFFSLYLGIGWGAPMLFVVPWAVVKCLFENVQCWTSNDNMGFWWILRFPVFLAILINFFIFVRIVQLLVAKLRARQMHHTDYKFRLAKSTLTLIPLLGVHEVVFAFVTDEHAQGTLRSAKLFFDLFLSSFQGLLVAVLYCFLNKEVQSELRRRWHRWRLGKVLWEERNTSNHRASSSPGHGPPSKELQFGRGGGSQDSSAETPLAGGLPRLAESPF

Row | SMILES | pEC50 [1] | % Relative Potency Ratio [1] | pEC50 [2]
1 | CC(C)C[C@H](NC(=O)[C@H](Cc1c[nH]c2ccccc12)NC(=O)[C@H](CCCNC(=N)N)NC(=O)[C@@H](NC(=O)[C@H](Cc1ccccc1)NC(=O)[C@H](CC(=O)O)NC(=O)[C@H](CCC(N)=O)NC(=O)[C@H](C)NC(=O)[C@H](CCCNC(=N)N)NC(=O)[C@H](CCCCNC(=O)COCCOCCNC(=O)COCCOCCNC(=O)CC[C@H](NC(=O)CCCCCCCCCCCCCCCCCCC(=O)O)C(=O)O)NC(=O)[C@@H](NC(=O)[C@H](CC(=O)O)NC(=O)[C@H](CC(C)C)NC(=O)[C@](C)(Cc1ccccc1)NC(=O)[C@H](CCCCN)NC(=O)[C@H](CO)NC(=O)[C@@H](NC(=O)[C@H](CC(=O)O)NC(=O)[C@H](CO)NC(=O)[C@@H](NC(=O)[C@H](Cc1ccccc1)NC(=O)[C@@H](NC(=O)CNC(=O)[C@H](CCC(N)=O)NC(=O)C(C)(C)NC(=O)[C@@H](N)Cc1c[nH]cn1)[C@@H](C)O)[C@@H](C)O)C(C)C)[C@@H](C)O)C(C)C)C(=O)N[C@@H](CC(C)C)C(=O)N[C@@H](CCC(=O)O)C(=O)NC(C)(C)C(=O)N[C@@H](CCCCN)C(N)=O [Peptide 479] (H-H[Aib]QGTFTSDVSK[αMeF]LDTK([AEEA-AEEA-γGlu-C20 diacid])RAQDFVRWLLE[Aib]K-NH2; N-terminus assumed) | 10.47 | 12.0 | 9.68
2 | CC(C)C[C@H](NC(=O)[C@H](Cc1c[nH]c2ccccc12)NC(=O)[C@H](CCC(N)=O)NC(=O)[C@@H](NC(=O)[C@H](Cc1ccccc1)NC(=O)[C@H](CC(=O)O)NC(=O)[C@H](CCC(N)=O)NC(=O)[C@H](C)NC(=O)[C@H](CCCNC(=N)N)NC(=O)[C@H](CCCCNC(=O)COCCOCCNC(=O)COCCOCCNC(=O)CC[C@H](NC(=O)CCCCCCCCCCCCCCCCC(=O)O)C(=O)O)NC(=O)[C@H](CO)NC(=O)[C@H](CCC(=O)O)NC(=O)[C@H](CC(C)C)NC(=O)[C@](C)(Cc1ccccc1)NC(=O)[C@H](CCCCN)NC(=O)[C@H](CO)NC(=O)[C@@H](NC(=O)[C@H](CC(=O)O)NC(=O)[C@H](CO)NC(=O)[C@@H](NC(=O)[C@H](Cc1ccccc1)NC(=O)[C@@H](NC(=O)CNC(=O)[C@H](CCC(N)=O)NC(=O)C(C)(C)NC(=O)[C@@H](N)Cc1c[nH]cn1)[C@@H](C)O)[C@@H](C)O)C(C)C)C(C)C)C(=O)N[C@@H](CC(C)C)C(=O)NC(C)(C)C(=O)N[C@@H](CCC(=O)O)C(=O)O [Peptide 482] (H-H[Aib]QGTFTSDVSK[αMeF]LESK([AEEA-AEEA-γGlu-C18 diacid])RAQDFVQWLL[Aib]E-OH; N-terminus assumed) | 9.72 | 7.2 | 9.16
3 | CC(C)C[C@H](NC(=O)[C@H](CC(=O)O)NC(=O)[C@H](CC(C)C)NC(=O)[C@](C)(Cc1ccccc1)NC(=O)[C@H](CCCCN)NC(=O)[C@H](CO)NC(=O)[C@@H](NC(=O)[C@H](CC(=O)O)NC(=O)[C@H](CO)NC(=O)[C@@H](NC(=O)[C@H](Cc1ccccc1)NC(=O)[C@@H](NC(=O)CNC(=O)[C@H](CCC(N)=O)NC(=O)C(C)(C)NC(=O)[C@@H](N)Cc1c[nH]cn1)[C@@H](C)O)[C@@H](C)O)C(C)C)C(=O)N[C@@H](CCCCNC(=O)COCCOCCNC(=O)COCCOCCNC(=O)CC[C@H](NC(=O)CCCCCCCCCCCCCCCCCCC(=O)O)C(=O)O)C(=O)N[C@@H](CCCNC(=N)N)C(=O)N[C@@H](C)C(=O)N[C@@H](CCC(N)=O)C(=O)N[C@@H](CC(=O)O)C(=O)N[C@@H](Cc1ccccc1)C(=O)N[C@H](C(=O)N[C@@H](CCCNC(=N)N)C(=O)N[C@@H](Cc1c[nH]c2ccccc12)C(=O)N[C@@H](CC(C)C)C(=O)N[C@@H](CC(C)C)C(=O)NC(C)(C)C(=O)N[C@@H](CCC(=O)O)C(=O)O)C(C)C [Peptide 486] | 9.38 | 0.8 | 9.78

The remaining compounds from weak to strong by pEC50 [1], led by results:

Row | pEC50 [1] | % Relative Potency Ratio [1] | pEC50 [2] | SMILES
4 | 9.47 | 1.0 | 9.77 | CC(C)C[C@H](NC(=O)[C@H](Cc1c[nH]c2ccccc12)NC(=O)[C@H](CCC(N)=O)NC(=O)[C@@H](NC(=O)[C@H](Cc1ccccc1)NC(=O)[C@H](CC(=O)O)NC(=O)[C@H](CCC(N)=O)NC(=O)[C@H](C)NC(=O)[C@H](CCCNC(=N)N)NC(=O)[C@H](CCCCNC(=O)COCCOCCNC(=O)COCCOCCNC(=O)CC[C@H](NC(=O)CCCCCCCCCCCCCCCCCCC(=O)O)C(=O)O)NC(=O)[C@@H](NC(=O)[C@H](CC(=O)O)NC(=O)[C@H](CC(C)C)NC(=O)[C@](C)(Cc1ccccc1)NC(=O)[C@H](CCCCN)NC(=O)[C@H](CO)NC(=O)[C@@H](NC(=O)[C@H](CC(=O)O)NC(=O)[C@H](CO)NC(=O)[C@@H](NC(=O)[C@H](Cc1ccccc1)NC(=O)[C@@H](NC(=O)CNC(=O)[C@H](CCC(N)=O)NC(=O)C(C)(C)NC(=O)[C@@H](N)Cc1c[nH]cn1)[C@@H](C)O)[C@@H](C)O)C(C)C)[C@@H](C)O)C(C)C)C(=O)N[C@@H](CC(C)C)C(=O)NC(C)(C)C(=O)N[C@@H](CCC(=O)O)C(=O)O [Peptide 484] (H-H[Aib]QGTFTSDVSK[αMeF]LDTK([AEEA-AEEA-γGlu-C20 diacid])RAQDFVQWLL[Aib]E-OH; N-terminus assumed)
5 | 9.66 | 0.8 | 10.04 | CC(C)C[C@H](NC(=O)[C@H](Cc1c[nH]c2ccccc12)NC(=O)[C@H](CCC(N)=O)NC(=O)[C@@H](NC(=O)[C@H](Cc1ccccc1)NC(=O)[C@H](CC(=O)O)NC(=O)[C@H](CCC(N)=O)NC(=O)[C@H](C)NC(=O)[C@H](CCCNC(=N)N)NC(=O)[C@H](CCCCNC(=O)COCCOCCNC(=O)COCCOCCNC(=O)CC[C@H](NC(=O)CCCCCCCCCCCCCCCCCCC(=O)O)C(=O)O)NC(=O)[C@@H](NC(=O)[C@H](CC(=O)O)NC(=O)[C@H](CC(C)C)NC(=O)[C@](C)(Cc1ccccc1)NC(=O)[C@H](CCCCN)NC(=O)[C@H](CO)NC(=O)[C@@H](NC(=O)[C@H](CC(=O)O)NC(=O)[C@H](CO)NC(=O)[C@@H](NC(=O)[C@H](Cc1ccccc1)NC(=O)[C@@H](NC(=O)CNC(=O)[C@H](CCC(N)=O)NC(=O)C(C)(C)NC(=O)[C@@H](N)Cc1c[nH]cn1)[C@@H](C)O)[C@@H](C)O)C(C)C)[C@@H](C)O)C(C)C)C(=O)N[C@@H](CC(C)C)C(=O)NC(C)(C)C(=O)N[C@@H](CCC(=O)O)C(N)=O [Peptide 485] (H-H[Aib]QGTFTSDVSK[αMeF]LDTK([AEEA-AEEA-γGlu-C20 diacid])RAQDFVQWLL[Aib]E-NH2; N-terminus assumed)
6 | 9.75 | 1.9 | 9.77 | CC(C)C[C@H](NC(=O)[C@H](Cc1c[nH]c2ccccc12)NC(=O)[C@H](CCC(N)=O)NC(=O)[C@@H](NC(=O)[C@H](Cc1ccccc1)NC(=O)[C@H](CC(=O)O)NC(=O)[C@H](CCC(N)=O)NC(=O)[C@H](C)NC(=O)[C@H](CCCNC(=N)N)NC(=O)[C@H](CCCCNC(=O)COCCOCCNC(=O)COCCOCCNC(=O)CC[C@H](NC(=O)CCCCCCCCCCCCCCCCC(=O)O)C(=O)O)NC(=O)[C@@H](NC(=O)[C@H](CC(=O)O)NC(=O)[C@H](CC(C)C)NC(=O)[C@](C)(Cc1ccccc1)NC(=O)[C@H](CCCCN)NC(=O)[C@H](CO)NC(=O)[C@@H](NC(=O)[C@H](CC(=O)O)NC(=O)[C@H](CO)NC(=O)[C@@H](NC(=O)[C@H](Cc1ccccc1)NC(=O)[C@@H](NC(=O)CNC(=O)[C@H](CCC(N)=O)NC(=O)C(C)(C)NC(=O)[C@@H](N)Cc1c[nH]cn1)[C@@H](C)O)[C@@H](C)O)C(C)C)[C@@H](C)O)C(C)C)C(=O)N[C@@H](CC(C)C)C(=O)NC(C)(C)C(=O)N[C@@H](CCC(=O)O)C(=O)O [Peptide 483]
7 | 10.28 | 13.3 | 9.46 | CC(C)C[C@H](NC(=O)[C@H](Cc1c[nH]c2ccccc12)NC(=O)[C@H](CCC(N)=O)NC(=O)[C@@H](NC(=O)[C@H](Cc1ccccc1)NC(=O)[C@H](CC(=O)O)NC(=O)[C@H](CCCNC(=N)N)NC(=O)[C@H](C)NC(=O)[C@H](CCCNC(=N)N)NC(=O)[C@H](CCCCNC(=O)COCCOCCNC(=O)COCCOCCNC(=O)CC[C@H](NC(=O)CCCCCCCCCCCCCCCCCCC(=O)O)C(=O)O)NC(=O)[C@@H](NC(=O)[C@H](CC(=O)O)NC(=O)[C@H](CC(C)C)NC(=O)[C@](C)(Cc1ccccc1)NC(=O)[C@H](CCCCN)NC(=O)[C@H](CO)NC(=O)[C@@H](NC(=O)[C@H](CC(=O)O)NC(=O)[C@H](CO)NC(=O)[C@@H](NC(=O)[C@H](Cc1ccccc1)NC(=O)[C@@H](NC(=O)CNC(=O)[C@H](CCC(N)=O)NC(=O)C(C)(C)NC(=O)[C@@H](N)Cc1c[nH]cn1)[C@@H](C)O)[C@@H](C)O)C(C)C)[C@@H](C)O)C(C)C)C(=O)N[C@@H](CC(C)C)C(=O)N[C@@H](CCC(=O)O)C(=O)NC(C)(C)C(=O)N[C@@H](CCCCN)C(N)=O [Peptide 481] (H-H[Aib]QGTFTSDVSK[αMeF]LDTK([AEEA-AEEA-γGlu-C20 diacid])RARDFVQWLLE[Aib]K-NH2; N-terminus assumed)
8 | 10.90 | 21.4 | 9.87 | CC(C)C[C@H](NC(=O)[C@H](Cc1c[nH]c2ccccc12)NC(=O)[C@H](CCC(N)=O)NC(=O)[C@@H](NC(=O)[C@H](Cc1ccccc1)NC(=O)[C@H](CC(=O)O)NC(=O)[C@H](CCCNC(=N)N)NC(=O)[C@H](C)NC(=O)[C@H](CCCNC(=N)N)NC(=O)[C@H](CCCCNC(=O)COCCOCCNC(=O)COCCOCCNC(=O)CC[C@H](NC(=O)CCCCCCCCCCCCCCCCC(=O)O)C(=O)O)NC(=O)[C@@H](NC(=O)[C@H](CC(=O)O)NC(=O)[C@H](CC(C)C)NC(=O)[C@](C)(Cc1ccccc1)NC(=O)[C@H](CCCCN)NC(=O)[C@H](CO)NC(=O)[C@@H](NC(=O)[C@H](CC(=O)O)NC(=O)[C@H](CO)NC(=O)[C@@H](NC(=O)[C@H](Cc1ccccc1)NC(=O)[C@@H](NC(=O)CNC(=O)[C@H](CCC(N)=O)NC(=O)C(C)(C)NC(=O)[C@@H](N)Cc1c[nH]cn1)[C@@H](C)O)[C@@H](C)O)C(C)C)[C@@H](C)O)C(C)C)C(=O)N[C@@H](CC(C)C)C(=O)N[C@@H](CCC(=O)O)C(=O)NC(C)(C)C(=O)N[C@@H](CCCCN)C(N)=O [Peptide 480] (H-H[Aib]QGTFTSDVSK[αMeF]LDTK([AEEA-AEEA-γGlu-C18 diacid])RARDFVQWLLE[Aib]K-NH2; N-terminus assumed)
